In PubChem BioAssay (NCI):
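Protocol summary: plate cells (96-well), add compound at 5 concentrations, incubate 48 h, interpolate endpoints linearly. GI50: concentration for 50% inhibition of growth. TGI marks complete inhibition of growth.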

What was measured:
Test in all cases: NCI tumour cell line growth inhibition, 48 h
[1] = system: 786-0 renal
[2] = system: A549 NSCLC
[3] = system: CAKI-1 renal
[4] = system: HOP-92 NSCLC
[5] = system: SK-MEL-2 melanoma
[6] = system: SK-MEL-28 melanoma
[7] = system: SN12C renal
[8] = system: TK-10 renal
[9] = system: RPMI-8226 leukemia
[10] = system: T-47D breast

SMILES | TGI [1] | TGI [2] | TGI [3] | TGI [4] | TGI [5] | TGI [6] | TGI [7] | TGI [8] | GI50 [1] | GI50 [2] | GI50 [3] | GI50 [9] | TGI [9] | GI50 [5] | GI50 [6] | GI50 [7] | GI50 [10] | TGI [10] | GI50 [8] | GI50 [4]
O=C(NC1CCCC1=O)c1ccccc1 (stereo not given) | > 100 µM | > 100 µM | > 100 µM | > 100 µM | > 100 µM | > 100 µM | > 100 µM | > 100 µM | – | – | – | – | – | – | – | – | – | – | – | –
COc1cc(/C=C/[N+](=O)[O-])cc(Br)c1OC | 3.54 µM | 22 µM | 5.23 µM | – | 5.71 µM | 6.14 µM | 13.1 µM | 11.5 µM | 1.95 µM | 7.84 µM | 1.89 µM | 2.59 µM | 6.64 µM | 2.67 µM | 2.39 µM | 3.94 µM | 2.57 µM | 8.48 µM | 3.52 µM | –
C=C1CCC2[C@@H](CCC3[C@]2(C)CCC[C@]3(C)C(=O)OC)[C@@H]1CC=O (stereo not given in full) | > 100 µM | > 100 µM | > 100 µM | 48.9 µM | 91.7 µM | 91.8 µM | > 100 µM | 77.5 µM | – | 62 µM | 35.8 µM | 19.1 µM | 57.6 µM | – | – | – | – | – | 31 µM | –
C[C@@H]1O[C@@H](OC[C@H]2O[C@@H](OCCc3ccc(O)c(O)c3)[C@H](O)[C@@H](O)[C@@H]2OC(=O)/C=C/c2ccc(O)c(O)c2)[C@H](O)[C@H](O)[C@H]1O | > 100 µM | > 100 µM | > 100 µM | – | > 100 µM | > 100 µM | > 100 µM | > 100 µM | > 100 µM | > 100 µM | > 100 µM | 12.2 µM | 50.9 µM | > 100 µM | > 100 µM | > 100 µM | > 100 µM | > 100 µM | > 100 µM | –
Fc1cccc(C2SCc3nc4ccccc4n32)c1F (stereo not given) | > 100 µM | > 100 µM | > 100 µM | 85 µM | 76.4 µM | – | > 100 µM | > 100 µM | – | – | – | – | > 100 µM | – | – | – | – | – | – | –
O=C([CH-]C(=O)c1ccccc1)c1ccccc1.O=C([CH-]C(=O)c1ccccc1)c1ccccc1.[OH-].[OH-].[Ti+4] | > 100 µM | > 100 µM | > 100 µM | – | > 100 µM | – | > 100 µM | > 100 µM | 47.1 µM | > 100 µM | 85.3 µM | 41.3 µM | > 100 µM | 76.5 µM | – | > 100 µM | – | – | > 100 µM | –
CN(C)c1ccc(/C=C2\C=Cc3ccccc32)cc1 | > 100 µM | > 100 µM | > 100 µM | > 100 µM | > 100 µM | > 100 µM | > 100 µM | > 100 µM | – | – | – | – | > 100 µM | – | – | – | – | – | – | –
c1ccc(P(=Nc2ccccc2N=P(c2ccccc2)(c2ccccc2)c2ccccc2)(c2ccccc2)c2ccccc2)cc1 | 11.3 µM | 12.6 µM | 3.72 µM | 0.573 µM | – | > 100 µM | 10.9 µM | – | – | – | – | – | 12.6 µM | – | – | – | – | – | – | –
CN(CCCCCl)P(=O)(OCCS(=O)(=O)CC(NC(=O)CCC(N)C(=O)O)C(=O)NC(C(=O)O)c1ccccc1)OCC1OC(n2cc(F)c(=O)[nH]c2=O)CC1O (stereo not given) | 2.62 µM | > 100 µM | 25.6 µM | – | > 100 µM | > 100 µM | 16.9 µM | > 21.4 µM | 0.0155 µM | < 0.0506 µM | 0.0177 µM | – | 1.48 µM | > 49.7 µM | 15.2 µM | 0.41 µM | 5.65 µM | > 100 µM | 0.944 µM | –
COc1cc2c(cc1OC)C1(c3ccc(Cl)cc3)ON=C(c3ccccc3)N1CS2 (stereo not given) | > 100 µM | > 100 µM | > 100 µM | > 100 µM | > 100 µM | > 100 µM | > 100 µM | > 100 µM | – | – | – | – | > 100 µM | – | – | – | – | – | – | –
COc1ccc(C=O)c(NC(=O)C(C)C)c1 | > 100 µM | > 100 µM | – | 53.5 µM | > 100 µM | > 100 µM | 57.6 µM | > 100 µM | – | – | – | – | 66.3 µM | – | – | – | – | – | – | –
CC1(C)OC2C(=O)C=C(COCc3ccccc3)C2O1 (stereo not given) | > 100 µM | > 100 µM | > 100 µM | – | > 100 µM | 95.4 µM | > 100 µM | > 100 µM | – | – | – | – | > 100 µM | – | – | – | – | 56.3 µM | – | –
Cc1nc2ccccc2c(/C=C/c2ccc(Br)cc2)c1C(=O)/C=C/c1ccccc1 | 3.18 µM | 4.57 µM | 2.62 µM | – | 3.46 µM | 3.4 µM | 3.68 µM | 3.87 µM | 1.64 µM | 1.91 µM | 1.26 µM | 1.38 µM | 5.1 µM | 1.75 µM | 1.89 µM | 1.76 µM | 1.46 µM | 3.63 µM | 2.15 µM | –
COc1ccc2c(c1)OC1=C(C(=O)OC1)C2c1cc(OC)c2c(c1)OCO2 (stereo not given) | > 100 µM | > 100 µM | > 100 µM | > 100 µM | > 100 µM | > 100 µM | > 100 µM | > 100 µM | 0.0506 µM | 0.0459 µM | 0.108 µM | 0.0487 µM | > 100 µM | 0.0405 µM | 0.0342 µM | 0.102 µM | – | – | 0.268 µM | 28.6 µM
COc1cc2nc(NCCCCCNC(=O)c3ccco3)nc(N)c2cc1OC | 49 µM | > 100 µM | > 100 µM | 42 µM | 36.5 µM | 36.2 µM | > 100 µM | > 100 µM | – | – | – | – | > 100 µM | – | – | – | – | – | – | –
CC1(C)OCC(C(O)C2OC(C)(C)OC2/C=N\O)O1 (stereo not given) | > 100 µM | > 100 µM | – | > 100 µM | > 100 µM | > 100 µM | – | > 100 µM | – | – | – | – | > 100 µM | – | – | – | – | – | – | –
CCO/C=C1\N=C(c2ccccc2Br)OC1=O | > 100 µM | > 100 µM | > 100 µM | > 100 µM | > 100 µM | > 100 µM | > 100 µM | > 100 µM | – | – | – | – | > 100 µM | – | – | – | – | – | – | –
N#Cc1ccc(N=Cc2c([O-])ccc3ccccc23)cc1.[C-]#[O+].[C-]#[O+].[Ir] | 28 µM | 38.1 µM | 6.26 µM | 10.3 µM | – | 22.1 µM | 27.5 µM | 13.5 µM | 14.3 µM | 20.8 µM | 2.92 µM | 5 µM | 25.1 µM | – | 10.4 µM | 13.2 µM | – | – | 4.35 µM | 3.23 µM
